Source: PubChem BioAssay (NCI)
“And” between values parts separate entries of the source, which are not always exact repeats. Equal entries are not always repeated.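 A five-concentration, 48-hour dose response in 96-well plates underlies each endpoint, interpolated linearly between surrounding concentrations. GI50: concentration for 50% inhibition of growth. TGI marks complete inhibition of growth.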

Legend:
Assay in all cases: NCI-60 cell line screen, 48 h
HCT-116 colon = tested on: HCT-116 colon
UACC-257 melanoma = tested on: UACC-257 melanoma
SK-OV-3 ovarian = tested on: SK-OV-3 ovarian
SF-295 CNS = tested on: SF-295 CNS
NCI-H460 lung = tested on: NCI-H460 lung
OVCAR-4 ovarian = tested on: OVCAR-4 ovarian
ACHN renal = tested on: ACHN renal
SW-620 colon = tested on: SW-620 colon
M14 melanoma = tested on: M14 melanoma
HCT-15 colon = tested on: HCT-15 colon

Work on `COc1ccc(/C=C\c2cc(OC)c(OC)c(OC)c2)c(NS(=O)(=O)c2ccc(Cl)cc2)c1O` yielded a GI50 (HCT-116 colon) of 0.114 µM, a TGI (HCT-116 colon) of over 100 µM and a GI50 (UACC-257 melanoma) of 14.2 µM. For the same compound, the TGI (UACC-257 melanoma) was 60.5 µM, the GI50 (SK-OV-3 ovarian) was 0.229 µM and the TGI (SK-OV-3 ovarian) was 24.3 µM. The GI50 (SF-295 CNS) was 0.256 µM, the TGI (SF-295 CNS) was 12.2 µM and the GI50 (NCI-H460 lung) was 0.316 µM. The TGI (NCI-H460 lung) was 14.4 µM, the GI50 (OVCAR-4 ovarian) was 0.0973 µM and the TGI (OVCAR-4 ovarian) was over 100 µM. It also gave a GI50 (ACHN renal) of 0.0838 µM, a TGI (ACHN renal) of 30.7 µM and a GI50 (SW-620 colon) of 0.0694 µM. It also gave a TGI (SW-620 colon) of over 100 µM, a GI50 (M14 melanoma) of 0.0913 µM and a TGI (M14 melanoma) of 56.3 µM. For the same compound, the GI50 (HCT-15 colon) was 0.053 µM and the TGI (HCT-15 colon) was over 100 µM.
`O=C1CCN2CCC(=O)c3c2c(cc2ccccc32)N1` showed a TGI (HCT-116 colon) of over 100 µM, a TGI (UACC-257 melanoma) of over 100 µM and a TGI (SK-OV-3 ovarian) of over 100 µM. For the same compound, the TGI (SF-295 CNS) was over 100 µM, the TGI (NCI-H460 lung) was over 100 µM and the TGI (ACHN renal) was over 100 µM. The TGI (SW-620 colon) was over 100 µM, the TGI (M14 melanoma) was over 100 µM and the TGI (HCT-15 colon) was over 100 µM.
For `COc1cc(/C=C/c2ccc(OC)c(OC)c2OC)cc(OC)c1OC`, the TGI (HCT-116 colon) was 27.9 µM, the TGI (UACC-257 melanoma) was 52.8 µM and the TGI (SK-OV-3 ovarian) was 57.6 µM. It also gave a TGI (SF-295 CNS) of 55.7 µM, a TGI (NCI-H460 lung) of 56.2 µM and a TGI (OVCAR-4 ovarian) of 70.9 µM. For the same compound, the TGI (ACHN renal) was over 92.2 µM, the TGI (SW-620 colon) was over 92.6 µM and the TGI (M14 melanoma) was 77 µM. For the same compound, the TGI (HCT-15 colon) was over 57.2 µM.
For `COC(=O)C(=O)C(C(=O)C(N)=O)c1nc2ccc(C(=O)c3ccccc3)cc2[nH]c1=O` (centres undefined), the TGI (HCT-116 colon) was over 100 µM, the TGI (UACC-257 melanoma) was over 100 µM and the TGI (SK-OV-3 ovarian) was over 100 µM. For the same compound, the TGI (SF-295 CNS) was over 100 µM, the TGI (NCI-H460 lung) was over 100 µM and the TGI (OVCAR-4 ovarian) was over 100 µM. It also gave a TGI (ACHN renal) of over 100 µM, a TGI (SW-620 colon) of over 100 µM and a TGI (M14 melanoma) of over 100 µM. The TGI (HCT-15 colon) was over 100 µM.
In the case of `Cc1cnc(Nc2ccc(OCCN3CCCC3)cc2)nc1Nc1cccc(S(=O)(=O)NC(C)(C)C)c1`, the GI50 (HCT-116 colon) is reported as 0.345 µM, the TGI (HCT-116 colon) is reported as 4.94 µM and > 6.43 µM and the GI50 (UACC-257 melanoma) is reported as 1.28 µM and 3.99 µM. For the same compound, the TGI (UACC-257 melanoma) was 2.83 µM and > 10 µM, the GI50 (SK-OV-3 ovarian) was 0.171 µM and 0.631 µM and the TGI (SK-OV-3 ovarian) was 2.62 µM and 3.14 µM. The GI50 (SF-295 CNS) was 0.304 µM and 2.57 µM, the TGI (SF-295 CNS) was 12.4 µM and > 10 µM and the GI50 (NCI-H460 lung) was 0.228 µM and 1.09 µM. For the same compound, the TGI (NCI-H460 lung) was 7.28 µM and > 10 µM, the GI50 (OVCAR-4 ovarian) was 0.671 µM and 0.967 µM and the TGI (OVCAR-4 ovarian) was 21.3 µM and > 10 µM. For the same compound, the GI50 (ACHN renal) was 0.0927 µM and 0.733 µM, the TGI (ACHN renal) was 1.89 µM and 3.49 µM and the GI50 (SW-620 colon) was 0.228 µM and 0.946 µM. The TGI (SW-620 colon) was 3.54 µM and > 7.42 µM, the GI50 (M14 melanoma) was 0.19 µM and 0.61 µM and the TGI (M14 melanoma) was 3.54 µM and 6.25 µM. For the same compound, the GI50 (HCT-15 colon) was 0.33 µM and 1.79 µM and the TGI (HCT-15 colon) was 11.5 µM and > 10 µM.
`Nc1nc(N)nc(CC(=O)O)n1` was tested, and the TGI (HCT-116 colon) was over 100 µM, the TGI (UACC-257 melanoma) was over 100 µM and the TGI (SK-OV-3 ovarian) was over 100 µM. For the same compound, the TGI (SF-295 CNS) was over 100 µM, the TGI (NCI-H460 lung) was over 100 µM and the TGI (OVCAR-4 ovarian) was over 100 µM. The TGI (ACHN renal) was over 100 µM, the TGI (SW-620 colon) was over 100 µM and the TGI (M14 melanoma) was over 100 µM. It also gave a TGI (HCT-15 colon) of over 100 µM.
`Cc1c(Cl)cccc1NC(=O)/C(Cl)=C(\Cl)C(=O)O` was tested, and the TGI (HCT-116 colon) was 27.4 µM, the TGI (UACC-257 melanoma) was 36.7 µM and the TGI (SK-OV-3 ovarian) was 33.3 µM. For the same compound, the TGI (SF-295 CNS) was 37.9 µM, the TGI (NCI-H460 lung) was over 100 µM and the TGI (OVCAR-4 ovarian) was 31.6 µM. For the same compound, the TGI (ACHN renal) was 31.3 µM, the TGI (SW-620 colon) was 39.9 µM and the TGI (M14 melanoma) was 30.9 µM. For the same compound, the TGI (HCT-15 colon) was 30 µM.
In the case of `Clc1ccc2c(c1)C(N1CCNCC1)=Nc1ccccc1O2`, the GI50 (HCT-116 colon) is reported as 1.42 µM, the TGI (HCT-116 colon) is reported as 2.8 µM and the GI50 (UACC-257 melanoma) is reported as 1.5 µM. The TGI (UACC-257 melanoma) was 2.87 µM, the GI50 (SK-OV-3 ovarian) was 1.94 µM and the TGI (SK-OV-3 ovarian) was 4.5 µM. It also gave a GI50 (SF-295 CNS) of 1.92 µM, a TGI (SF-295 CNS) of 3.82 µM and a GI50 (NCI-H460 lung) of 2.46 µM. It also gave a TGI (NCI-H460 lung) of 5.41 µM, a GI50 (OVCAR-4 ovarian) of 2.45 µM and a TGI (OVCAR-4 ovarian) of 8.72 µM. It also gave a GI50 (ACHN renal) of 1.97 µM, a TGI (ACHN renal) of 4.2 µM and a GI50 (SW-620 colon) of 1.62 µM. For the same compound, the TGI (SW-620 colon) was 3.15 µM, the GI50 (M14 melanoma) was 1.68 µM and the TGI (M14 melanoma) was 3.07 µM. For the same compound, the GI50 (HCT-15 colon) was 3.26 µM and the TGI (HCT-15 colon) was 11.7 µM.
Compound `Cc1ccc2sc3ccc(N)cc3c(=O)c2c1` has a TGI (HCT-116 colon) of over 100 µM, a TGI (UACC-257 melanoma) of over 100 µM and a TGI (SK-OV-3 ovarian) of over 100 µM. It also gave a TGI (SF-295 CNS) of over 100 µM, a TGI (NCI-H460 lung) of over 100 µM and a TGI (OVCAR-4 ovarian) of over 100 µM. It also gave a TGI (ACHN renal) of over 100 µM, a TGI (SW-620 colon) of over 100 µM and a TGI (M14 melanoma) of over 100 µM. It also gave a TGI (HCT-15 colon) of over 100 µM.
